Experimental findings from US10052320B2, “Substituted quinoxalines as FGFR kinase inhibitors” (ASTEX THERAPEUTICS LIMITED, priority 2011, dated 2018) are described below.

The test system of test [1] is Ba/F3-FGFR1-transfected cells in the presence of 10 ng/ml murine IL3. The test can be described thus: Ba/F3-FGFR1 (plus IL3) cellular proliferation counterscreen, Alamar Blue. The settings on record: plus IL3, 384 well; for IC50: Mus musculus, read-out: BAF3-FGFR 1 (PLUS IL3) 384 well pIC50 (converted). It counts as cell-based. The method, then: (§1) Ba/F3-FGFR1 (Minus IL3 or Plus IL3) (Cellular Proliferation Assay)
(§2) In a 384 well plate, 100 nl of compound dilution in DMSO was sprayed before adding 50 μl cell culture medium (phenol red free RPMI-1640, 10% FBS, 2 mM L-Glutamine and 50 μg/ml Gentamycin) containing 20000 cells per well of Ba/F3-FGFR1-transfected cells. Cells were put in an incubator at 37° C. and 5% CO2. After 24 hours, 10 μl of Alamar Blue solution (0.5 mM K3Fe(CN)6, 0.5 mM KaFe(CN)6, 0.15 mM Resazurin and 100 mM Phosphate Buffer) was added to the wells, incubated for 4 hours at 37° C. and 5% CO2 before RFU's (Relative Fluorescence Units) (ex. 540 nm., em. 590 nm.) were measured in a flurorescence plate reader.
(§3) As a counterscreen the same experiment was performed in the presence of 10 ng/ml murine IL3.
as §2, with “a 96” for “a 384”, “plate, 180” for “plate, 100 nl of compound dilution in DMSO was sprayed before adding 50”, “containing 10000” for “containing 20000”, “Ba/F3-FGFR1-transfected cells were pipette and 20 μl of compound dilution in DMSO was added.” for “Ba/F3-FGFR1-transfected cells.”, “hours, 40” for “hours, 10”

The target in test [2] is Ba/F3-KDR-transfected cells (Homo sapiens, UniProt P35968). In words: Ba/F3-KDR (minus IL3) cellular proliferation assay, Alamar Blue. It counts as cell-based. The following applies: minus IL3. The method, then: Ba/F3-KDR (Minus IL3 or Plus IL3) (Cellular Proliferation Assay)
Chain of Ba/F3-KDR-transfected cells (P35968 whole entry, change not shown): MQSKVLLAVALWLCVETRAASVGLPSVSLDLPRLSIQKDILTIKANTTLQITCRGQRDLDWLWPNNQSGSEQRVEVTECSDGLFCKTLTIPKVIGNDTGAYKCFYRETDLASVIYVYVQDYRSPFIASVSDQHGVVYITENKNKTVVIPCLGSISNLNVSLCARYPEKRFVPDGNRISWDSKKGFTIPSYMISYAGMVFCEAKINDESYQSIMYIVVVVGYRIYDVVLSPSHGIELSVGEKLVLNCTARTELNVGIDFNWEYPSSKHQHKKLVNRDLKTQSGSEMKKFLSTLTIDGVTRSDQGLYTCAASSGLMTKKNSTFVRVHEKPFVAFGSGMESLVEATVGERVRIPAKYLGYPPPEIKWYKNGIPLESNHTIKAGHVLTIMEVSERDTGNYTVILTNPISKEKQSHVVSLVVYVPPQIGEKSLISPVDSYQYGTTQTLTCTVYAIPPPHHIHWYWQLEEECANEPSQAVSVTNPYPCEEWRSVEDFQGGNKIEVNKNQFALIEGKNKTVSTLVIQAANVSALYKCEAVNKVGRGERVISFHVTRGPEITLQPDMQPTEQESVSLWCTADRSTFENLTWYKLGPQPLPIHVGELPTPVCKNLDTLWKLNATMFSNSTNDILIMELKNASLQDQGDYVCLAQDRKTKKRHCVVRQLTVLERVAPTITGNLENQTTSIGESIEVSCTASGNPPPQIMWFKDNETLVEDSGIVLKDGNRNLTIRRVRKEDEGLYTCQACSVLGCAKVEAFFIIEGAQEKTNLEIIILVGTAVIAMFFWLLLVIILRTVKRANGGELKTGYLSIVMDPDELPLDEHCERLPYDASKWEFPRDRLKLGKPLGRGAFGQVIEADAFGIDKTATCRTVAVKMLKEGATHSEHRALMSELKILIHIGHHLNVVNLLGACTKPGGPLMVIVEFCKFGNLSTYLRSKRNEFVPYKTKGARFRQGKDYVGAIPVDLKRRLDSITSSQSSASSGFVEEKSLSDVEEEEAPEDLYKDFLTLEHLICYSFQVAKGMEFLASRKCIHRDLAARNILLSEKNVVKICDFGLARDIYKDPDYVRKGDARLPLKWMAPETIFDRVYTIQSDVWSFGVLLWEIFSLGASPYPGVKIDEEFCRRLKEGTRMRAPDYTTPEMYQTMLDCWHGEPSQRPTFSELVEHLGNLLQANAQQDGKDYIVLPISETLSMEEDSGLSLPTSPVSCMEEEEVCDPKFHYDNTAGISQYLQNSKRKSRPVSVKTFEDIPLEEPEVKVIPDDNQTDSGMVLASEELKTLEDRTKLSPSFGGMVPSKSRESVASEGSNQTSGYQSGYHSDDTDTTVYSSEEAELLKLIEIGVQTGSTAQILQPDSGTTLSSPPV
as §2, with “Ba/F3-KDR-transfected” for “Ba/F3-FGFR1-transfected”
as §3
as §2, with “a 96” for “a 384”, “plate, 180” for “plate, 100 nl of compound dilution in DMSO was sprayed before adding 50”, “containing 10000” for “containing 20000”, “of Ba/F3-KDR-transfected cells were pipette and 20 μl of compound dilution in DMSO was added.” for “of Ba/F3-FGFR1-transfected cells.”, “hours, 40” for “hours, 10”, “CO2” for “CO2 before”

A further test has as its target FGFR2 (h) (Homo sapiens, UniProt P21802). The test can be described thus: FGFR2 (enzymatic assay), TR-FRET. It counts as biochemical. The following applies: read-out: FGFR 2 pIC50 (converted). The method, then:
In a final reaction volume of 30 μL, FGFR2 (h) (150 ng/ml) was incubated with 50 mM HEPES pH 7.5, 6 mM MnCl2, 1 mM DTT, 0.1 mM Na3VO4, 0.01% Triton-X-100, 500 nM Btn-Flt3 and 0.4 μM ATP in the presence of compound (1% DMSO final). […] Time-Resolved Fluorescence Resonance Energy Transfer (TR-FRET) signal (ex340 nm. Em 620 nm, em 655 nm) was measured afterwards and results are expressed in (Relative Fluorescence Units).

In another test the target is FGFR4 (h) (Homo sapiens, UniProt P22455). The test can be described thus: FGFR4 (enzymatic assay), TR-FRET. It counts as biochemical. The settings on record: read-out: FGFR 4 pIC50 (converted). The method, then:
In a final reaction volume of 30 μL, FGFR4 (h) (60 ng/ml) was incubated with 50 mM HEPES pH 7.5, 6 mM MnCl2, 1 mM DTT, 0.1 mM Na3VO4, 0.01% Triton-X-100, 500 nM Btn-Flt3 and 5 μM ATP in the presence of compound (1% DMSO final). […] Time-Resolved Fluorescence Resonance Energy Transfer (TR-FRET) signal (ex340 nm. Em 620 nm, em 655 nm) was measured afterwards and results are expressed in RFU (Relative Fluorescence Units).

The target in another test is FGFR3 (h) (Homo sapiens, UniProt P22607). The test can be described thus: FGFR3 (enzymatic assay), TR-FRET. It counts as biochemical. The following applies: read-out: FGFR 3 pIC50 (converted). The method, then: In a final reaction volume of 30 μL, FGFR3 (h) (40 ng/ml) was incubated with 50 mM HEPES pH 7.5, 6 mM MnCl2, 1 mM DTT, 0.1 mM Na3VO4, 0.01% Triton-X-100, 500 nM Btn-Flt3 and 25 μM ATP in the presence of compound (1% DMSO final). […] Time-Resolved Fluorescence Resonance Energy Transfer (TR-FRET) signal (ex340 nm. Em 620 nm, em 655 nm) was measured afterwards and results are expressed in RFU (Relative Fluorescence Units).
Chain of FGFR3 (h) (P22607 23-806): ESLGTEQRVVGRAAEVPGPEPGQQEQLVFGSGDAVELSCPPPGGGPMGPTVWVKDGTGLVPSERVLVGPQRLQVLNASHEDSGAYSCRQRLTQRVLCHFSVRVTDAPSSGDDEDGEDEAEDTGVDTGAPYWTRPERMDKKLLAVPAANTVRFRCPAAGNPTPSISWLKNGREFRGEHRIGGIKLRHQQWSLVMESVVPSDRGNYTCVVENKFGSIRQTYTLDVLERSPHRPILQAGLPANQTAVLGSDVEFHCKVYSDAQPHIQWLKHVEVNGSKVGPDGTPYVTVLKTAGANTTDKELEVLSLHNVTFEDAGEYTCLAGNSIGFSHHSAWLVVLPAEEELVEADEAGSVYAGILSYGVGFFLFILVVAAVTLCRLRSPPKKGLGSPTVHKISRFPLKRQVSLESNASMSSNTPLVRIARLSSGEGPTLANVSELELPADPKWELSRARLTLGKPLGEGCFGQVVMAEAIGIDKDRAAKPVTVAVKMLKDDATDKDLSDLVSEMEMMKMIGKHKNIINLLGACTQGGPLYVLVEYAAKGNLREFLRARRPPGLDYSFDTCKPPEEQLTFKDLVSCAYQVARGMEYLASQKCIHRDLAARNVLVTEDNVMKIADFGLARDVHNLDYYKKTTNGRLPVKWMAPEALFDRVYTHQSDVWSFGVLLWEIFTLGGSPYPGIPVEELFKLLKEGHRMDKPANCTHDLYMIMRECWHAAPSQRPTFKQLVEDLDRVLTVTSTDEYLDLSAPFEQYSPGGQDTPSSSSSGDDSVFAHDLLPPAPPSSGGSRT

In test [3] the target is Ba/F3-FGFR1-transfected cells (Homo sapiens, UniProt P11362). In words: Ba/F3-FGFR1 (minus IL3) cellular proliferation assay, Alamar Blue. It counts as cell-based. The following applies: minus IL3, 384 well. The method, then:
as §1
Cells were put in an incubator at 37° C. and 5% CO2. After 24 hours, 10 μl of Alamar Blue solution (0.5 mM K3Fe(CN)6, 0.5 mM KaFe(CN)6, 0.15 mM Resazurin and 100 mM Phosphate Buffer) was added to the wells, incubated for 4 hours at 37° C. and 5% CO2 before RFU's (Relative Fluorescence Units) (ex. 540 nm., em. 590 nm.) were measured in a flurorescence plate reader. […]
as §2, with “a 96” for “a 384”, “plate, 180” for “plate, 100 nl of compound dilution in DMSO was sprayed before adding 50”, “containing 10000” for “containing 20000”, “Ba/F3-FGFR1-transfected cells were pipette and 20 μl of compound dilution in DMSO was added.” for “Ba/F3-FGFR1-transfected cells.”, “hours, 40” for “hours, 10”

Chain of Ba/F3-FGFR1-transfected cells (P11362 whole entry, change not shown): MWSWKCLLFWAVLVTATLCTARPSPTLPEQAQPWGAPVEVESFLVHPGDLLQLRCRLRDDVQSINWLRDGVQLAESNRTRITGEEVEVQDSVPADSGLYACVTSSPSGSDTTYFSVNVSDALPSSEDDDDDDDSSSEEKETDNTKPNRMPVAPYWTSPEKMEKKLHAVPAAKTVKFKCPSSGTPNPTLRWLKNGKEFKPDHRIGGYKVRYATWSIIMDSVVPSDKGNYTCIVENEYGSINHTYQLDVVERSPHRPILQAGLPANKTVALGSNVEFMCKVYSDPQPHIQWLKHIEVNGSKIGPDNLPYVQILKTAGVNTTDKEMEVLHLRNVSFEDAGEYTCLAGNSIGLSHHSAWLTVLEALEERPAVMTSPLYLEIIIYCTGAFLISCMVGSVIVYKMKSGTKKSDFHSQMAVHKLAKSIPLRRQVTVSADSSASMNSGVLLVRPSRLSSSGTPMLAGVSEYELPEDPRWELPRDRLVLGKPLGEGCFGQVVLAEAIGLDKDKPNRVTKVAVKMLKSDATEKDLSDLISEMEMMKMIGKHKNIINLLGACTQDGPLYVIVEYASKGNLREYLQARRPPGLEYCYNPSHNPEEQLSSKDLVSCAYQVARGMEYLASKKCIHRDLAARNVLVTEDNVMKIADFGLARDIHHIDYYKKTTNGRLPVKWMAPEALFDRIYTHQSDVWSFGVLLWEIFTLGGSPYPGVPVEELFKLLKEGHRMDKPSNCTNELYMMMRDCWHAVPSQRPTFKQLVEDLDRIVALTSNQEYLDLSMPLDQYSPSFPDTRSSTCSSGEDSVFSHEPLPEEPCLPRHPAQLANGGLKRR
Chain of FGFR4 (h) (P22455 22-802): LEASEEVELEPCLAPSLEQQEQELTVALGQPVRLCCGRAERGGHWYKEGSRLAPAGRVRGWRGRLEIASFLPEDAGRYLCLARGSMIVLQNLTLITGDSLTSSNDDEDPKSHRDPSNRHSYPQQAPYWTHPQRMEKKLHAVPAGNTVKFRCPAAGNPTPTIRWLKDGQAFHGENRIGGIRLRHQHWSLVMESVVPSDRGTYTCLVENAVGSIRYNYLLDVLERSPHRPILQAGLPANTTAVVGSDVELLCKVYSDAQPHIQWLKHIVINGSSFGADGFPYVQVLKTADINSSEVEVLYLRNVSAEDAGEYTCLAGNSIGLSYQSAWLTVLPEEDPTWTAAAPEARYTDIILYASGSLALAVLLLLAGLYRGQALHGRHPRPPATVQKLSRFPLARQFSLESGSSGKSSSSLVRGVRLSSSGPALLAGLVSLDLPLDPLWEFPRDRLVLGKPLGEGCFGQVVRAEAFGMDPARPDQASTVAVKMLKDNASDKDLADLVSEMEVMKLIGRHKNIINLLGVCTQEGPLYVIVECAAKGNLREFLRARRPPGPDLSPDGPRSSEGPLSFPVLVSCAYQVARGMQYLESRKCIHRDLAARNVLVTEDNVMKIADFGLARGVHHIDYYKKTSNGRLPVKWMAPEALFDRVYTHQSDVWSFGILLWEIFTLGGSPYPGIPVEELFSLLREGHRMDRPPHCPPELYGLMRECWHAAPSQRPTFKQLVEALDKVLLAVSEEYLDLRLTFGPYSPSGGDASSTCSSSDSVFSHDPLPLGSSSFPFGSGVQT
Chain of FGFR2 (h) (P21802 22-821): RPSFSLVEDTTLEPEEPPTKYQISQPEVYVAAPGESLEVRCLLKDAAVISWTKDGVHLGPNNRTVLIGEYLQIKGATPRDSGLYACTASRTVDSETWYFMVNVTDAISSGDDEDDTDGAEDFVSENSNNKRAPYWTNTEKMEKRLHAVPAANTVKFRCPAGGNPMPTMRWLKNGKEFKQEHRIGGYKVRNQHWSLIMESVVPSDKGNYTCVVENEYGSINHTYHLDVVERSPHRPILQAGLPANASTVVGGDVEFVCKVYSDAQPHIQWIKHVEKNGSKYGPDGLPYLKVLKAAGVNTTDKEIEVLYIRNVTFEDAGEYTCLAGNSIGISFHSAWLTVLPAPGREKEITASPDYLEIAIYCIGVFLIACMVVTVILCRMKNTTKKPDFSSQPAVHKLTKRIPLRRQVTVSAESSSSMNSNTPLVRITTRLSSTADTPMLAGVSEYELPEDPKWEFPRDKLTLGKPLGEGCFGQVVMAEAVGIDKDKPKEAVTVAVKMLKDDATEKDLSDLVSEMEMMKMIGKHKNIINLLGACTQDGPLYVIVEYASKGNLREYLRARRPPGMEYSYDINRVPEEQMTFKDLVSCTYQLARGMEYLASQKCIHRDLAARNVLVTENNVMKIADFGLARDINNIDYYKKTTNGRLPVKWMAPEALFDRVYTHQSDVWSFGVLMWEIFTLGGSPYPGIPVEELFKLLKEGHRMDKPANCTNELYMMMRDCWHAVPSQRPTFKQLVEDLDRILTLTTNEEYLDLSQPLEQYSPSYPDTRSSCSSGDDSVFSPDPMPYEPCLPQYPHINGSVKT

As for `COCC(CN(c1cc(OC)cc(OC)c1)c1ccc2ncc(-c3cccnc3)nc2c1)OC(C)=O` (single isomer, unassigned) [Compound 52], the IC50 in test [1] was greater than 10000 nM; on FGFR2 (h), 91.2 nM; at FGFR4 (h), 407 nM; on FGFR3 (h) it was 28.8 nM. Besides, the “BAF3-KDR (MIN IL3) 384 well pIC50” value in test [2] is on record as less than 5. The “BAF3-FGFR 1 (MIN IL3) 384 well pIC50” value in test [3] turned out to be 5.96.
Regarding `COCC(CN(c1cc(OC)cc(OC)c1)c1ccc2ncc(-c3cccnc3)nc2c1)OC(C)=O` (single isomer, unassigned) [Compound 76], in test [1], the “BAF3-FGFR 1 (PLUS IL3) 384 well pIC50” value was less than 5. In test [2], the “BAF3-KDR (MIN IL3) 384 well pIC50” value is on record as less than 5. In addition, the IC50 on FGFR2 (h) is 20 nM; on FGFR4 (h), 107 nM; on FGFR3 (h), 5.75 nM. Also, the “BAF3-FGFR 1 (MIN IL3) 384 well pIC50” value in test [3] amounted to 6.3.
With `COc1cc(OC)cc(N(CCCNCC(F)(F)F)c2ccc3ncc(-c4ccn(C)c4)nc3c2)c1` [Compound 5], the IC50 is greater than 10000 nM in test [1], 15.1 nM at FGFR2 (h) and 9.55 nM on FGFR3 (h). Moreover, the “BAF3-KDR (MIN IL3) 384 well pIC50” value in test [2] stood at 5.07. For the same molecule, the “BAF3-FGFR 1 (MIN IL3) 384 well pIC50” value in test [3] was found to be 5.99.
In the case of `COc1cc(OC)cc(N(CC2CC2)c2ccc3ncc(N4CCN(CCO)CC4)nc3c2)c1` [Compound 49], the IC50 is greater than 10000 nM in test [1], 398 nM on FGFR2 (h), 1580 nM on FGFR4 (h) and 126 nM on FGFR3 (h). The “BAF3-KDR (MIN IL3) 384 well pIC50” value in test [2] is recorded as less than 5. Besides, the “BAF3-FGFR 1 (MIN IL3) 384 well pIC50” value in test [3] is given as less than 5.
For the molecule `COc1cc(OC)cc(N(CCNC(C)C)c2ccc3ncc(N4CCC(CN)CC4)nc3c2)c1` [Compound 67], the IC50 in test [1] is 8510 nM; at FGFR2 (h), 6.31 nM; on FGFR4 (h) it was 200 nM; on FGFR3 (h), 16.6 nM. Further, the “BAF3-KDR (MIN IL3) 384 well pIC50” value in test [2] is given as 5. In addition, the “BAF3-FGFR 1 (MIN IL3) 384 well pIC50” value in test [3] is listed as 6.23.
In the case of `COc1cc(OC)cc(N(CCNC(C)C)c2ccc3ncc(-n4cnc(CO)c4)nc3c2)c1` [Compound 77], the IC50 in test [1] was greater than 10000 nM; on FGFR2 (h) it was 9.12 nM; at FGFR4 (h), 52.5 nM; on FGFR3 (h), 12 nM. The “BAF3-KDR (MIN IL3) 384 well pIC50” value in test [2] is 5.29. Further, in test [3], the “BAF3-FGFR 1 (MIN IL3) 384 well pIC50” value came out at 7.12.
Consider `COc1cc(OC)cc(N(CCCNCCCO)c2ccc3ncc(-c4ccnc(C(=O)NCCCCN)c4)nc3c2)c1` [Compound 132], for which the IC50 in test [1] is greater than 10000 nM; on FGFR2 (h), 8.71 nM; on FGFR4 (h), 117 nM; at FGFR3 (h), 18.6 nM. In addition, the “BAF3-KDR (MIN IL3) 384 well pIC50” value in test [2] was determined as 5.04. Further, the “BAF3-FGFR 1 (MIN IL3) 384 well pIC50” value in test [3] is given as 5.8.
Turning to `COc1cc(OC)cc(N(CCO)c2ccc3ncc(-c4ccnc(C(=O)NCCCCCN)c4)nc3c2)c1` [Compound 138], the “BAF3-KDR (MIN IL3) 384 well pIC50” value in test [2] is given as less than 5. Further, the IC50 was roughly 31.6 nM at FGFR2 (h), 178 nM on FGFR4 (h) and 16.2 nM at FGFR3 (h). Also, in test [3], the “BAF3-FGFR 1 (MIN IL3) 384 well pIC50” value is given as less than 5.
Consider `COc1cc(OC)cc(N(CCO)c2ccc3ncc(-c4ccnc(C(=O)NCCCCCO)c4)nc3c2)c1` [Compound 139], for which the IC50 in test [1] was greater than 10000 nM; at FGFR2 (h), 39.8 nM; on FGFR4 (h) it was 97.7 nM; at FGFR3 (h), 11.5 nM. Moreover, in test [2], the “BAF3-KDR (MIN IL3) 384 well pIC50” value is given as less than 5. Moreover, the “BAF3-FGFR 1 (MIN IL3) 384 well pIC50” value in test [3] is given as 5.35.
For `COc1cc(OC)cc(N(CCCNC(C)C)c2ccc3ncc(-c4ccnc(N)c4)nc3c2)c1` [Compound 143], the IC50 was 5620 nM in test [1], 3.39 nM on FGFR2 (h), 9.55 nM at FGFR4 (h) and 2.51 nM on FGFR3 (h). Moreover, the “BAF3-KDR (MIN IL3) 384 well pIC50” value in test [2] stood at 5.33. Moreover, the “BAF3-FGFR 1 (MIN IL3) 384 well pIC50” value in test [3] stood at 6.56.
Take `COc1cc(OC)cc(N(CCNC(C)C)c2ccc3ncc(-c4ccnc(C(=O)NCCCN)c4)nc3c2)c1` [Compound 146]: the IC50 in test [1] was greater than 10000 nM; on FGFR2 (h) it was 8.13 nM; at FGFR4 (h) it was 49 nM; at FGFR3 (h), 12.3 nM. Also, the “BAF3-KDR (MIN IL3) 384 well pIC50” value in test [2] is reported as less than 5. Besides, the “BAF3-FGFR 1 (MIN IL3) 384 well pIC50” value in test [3] turned out to be 6.46.
As for `COc1cc(OC)cc(N(CCCNCC(F)(F)F)c2ccc3ncc(C(=O)NCCN4CCOCC4)nc3c2)c1` [Compound 158], the IC50 in test [1] is greater than 10000 nM; on FGFR2 (h), 661 nM; on FGFR4 (h), greater than 1000 nM; at FGFR3 (h), 537 nM. In test [2], the “BAF3-KDR (MIN IL3) 384 well pIC50” value is listed as less than 5. The “BAF3-FGFR 1 (MIN IL3) 384 well pIC50” value in test [3] is less than 5.
As to `COc1cc(OC)cc(N(CCNC(C)C)c2ccc3ncc(C(=O)NCCCN4CCN(C)CC4)nc3c2)c1` [Compound 159], the IC50 in test [1] was greater than 10000 nM; at FGFR2 (h), 66.1 nM; at FGFR4 (h), 490 nM; on FGFR3 (h) it was 155 nM. The “BAF3-KDR (MIN IL3) 384 well pIC50” value in test [2] was less than 5. The “BAF3-FGFR 1 (MIN IL3) 384 well pIC50” value in test [3] came to 5.74.
`COc1cc(OC)cc(N(CCNC(C)C)c2ccc3ncc(C(=O)NCCN4CCOCC4)nc3c2)c1` [Compound 160]: the IC50 is greater than 10000 nM in test [1], 57.5 nM at FGFR2 (h), 309 nM at FGFR4 (h) and 91.2 nM at FGFR3 (h). In test [2], the “BAF3-KDR (MIN IL3) 384 well pIC50” value is less than 5. In addition, the “BAF3-FGFR 1 (MIN IL3) 384 well pIC50” value in test [3] is reported as 5.86.
As for `COc1cc(OC)cc(N(CCNC(C)C)c2ccc3ncc(NCC4CCNCC4)nc3c2)c1` [Compound 161], the IC50 in test [1] was greater than 10000 nM; at FGFR2 (h), 14.1 nM; on FGFR4 (h), 331 nM; at FGFR3 (h) it was 44.7 nM. For the same molecule, the “BAF3-KDR (MIN IL3) 384 well pIC50” value in test [2] is recorded as less than 5. Further, the “BAF3-FGFR 1 (MIN IL3) 384 well pIC50” value in test [3] came out at 5.42.
